Measurements published in publication PMC7155171, “Probing the Open Global Health Chemical Diversity Library for Multistage-Active Starting Points for Next-Generation Antimalarials” (ACS Infectious Diseases, 2020).
Where two headings read alike, the source gives them in different places.

What was measured:
Type in all cases: cell-based, Plasmodium falciparum
[1] = test system: P. falciparum (NF54) stage V gametocytes; assay: Stage V gametocyte viability assay (MitoTracker Red CMXRos high content imaging); details: Plasmodium falciparum; for inhibition at 2 µM: read-out: Stg V Gam primary screen: Inhibition % (2uM) (n=2)
[2] = test system: P. falciparum Dd2 (PfLuc) line expressing firefly luciferase, asexual blood stage; assay: microbe, parasite or virus in culture; details: Plasmodium falciparum
[3] = test system: P. falciparum Dd2; assay: SYBR green I asexual blood stage proliferation assay (96 h); details: Plasmodium falciparum, DD2, 11-pt dose response, 96hr
[4] = NF54, 72 h, read-out: Stg V Gam dose response IC50 (µM) (n=3), 10-point dose response, n=3, 72 h
[5] = DD2, 8-pt dose response, 96hr, read-out: P. falciparum Luciferase ABS 8-pt Reconfirmation Dose Response (96hr): IC50
[6] = DD2, 8-pt dose response, 96hr, read-out: P. falciparum Luciferase ABS 8-pt Reconfirmation Dose Response (96hr): Maximum inhibition (%)
[7] = DD2, read-out: P. falciparum Luciferase ABS 11-pt Reconfirmation Dose Response (48hr): IC50, 11-pt dose response, 48hr
[8] = DD2, 11-pt dose response, 96hr, read-out: P. falciparum Luciferase ABS 11-pt Reconfirmation Dose Response (96hr): IC50
[9] = DD2, 11-pt dose response, 96hr, read-out: P. falciparum Luciferase ABS 11-pt Reconfirmation Dose Response (96hr): Maximum inhibition (%)
[10] = read-out: P. falciparum Sybr Green I ABS 11-pt Reconfirmation Dose Response (96hr): IC50
[11] = read-out: P. falciparum Sybr Green I ABS 11-pt Reconfirmation Dose Response (96hr): Maximum inhibition (%)
[12] = DD2, read-out: CDD P. falciparum Luciferase ABS 11-pt Reconfirmation Dose Response (48hr): IC50 (μM), 11-pt dose response, 48hr
[13] = DD2, 8-pt dose response, 96hr, read-out: CDD P. falciparum Luciferase ABS 8-pt Reconfirmation Dose Response (96hr): IC50
[14] = DD2, 8-pt dose response, 96hr, read-out: CDD P. falciparum Luciferase ABS 8-pt Reconfirmation Dose Response (96hr): Maximum inhibition (%)
[15] = DD2, 11-pt dose response, 48hr, read-out: CDD P. falciparum Luciferase ABS 11-pt Reconfirmation Dose Response (48hr): Maximum inhibition (%)
[16] = DD2, 11-pt dose response, 96hr, read-out: CDD P. falciparum Luciferase ABS 11-pt Reconfirmation Dose Response (96hr): IC50
[17] = DD2, 11-pt dose response, 96hr, read-out: CDD P. falciparum Luciferase ABS 11-pt Reconfirmation Dose Response (96hr): Maximum inhibition (%)
[18] = Sybr Green I, read-out: CDD P. falciparum Sybr Green I ABS 11-pt Reconfirmation Dose Response (96hr): IC50
[19] = Sybr Green I, read-out: CDD P. falciparum Sybr Green I ABS 11-pt Reconfirmation Dose Response (96hr): Maximum inhibition (%)
[20] = NF54, 72 h, read-out: GAM V IC50, stage V gametocytes, 72 h
[21] = DD2, 11-pt dose response, 48hr, read-out: P. falciparum Luciferase ABS 11-pt Reconfirmation Dose Response (48hr): Maximum inhibition (%)
[22] = 96 h incubation, Dd2 luciferase, read-out: 96 hour Pfluc IC50

| Structure (SMILES) | IC50 [1, 4] | inhibition at 2 µM ([1]; NF54, 72 h) | IC50 [2, 5] | IC50 [2, 12] | IC50 [2, 13] | Emax [2, 14] | IC50 [2, 16] | Emax [2, 17] | IC50 [1, 20] | also measured |
| --- | --- | --- | --- | --- | --- | --- | --- | --- | --- | --- |
| CN(Cc1ccco1)C[C@H]1OC[C@@H]2CCN(Cc3ccccn3)C[C@@H]21 [DDD01033585, CN(C[C@H]1OC[C@@H]2CCN(CC3=CC=CC=N3)C[C@H]12)CC1=CC=CO1] | 3.17 µM | 76% | 1.65 µM | – | – | – | – | – | – | Emax [2, 6]: 91.7% |
| CCc1ccc(C2c3nc[nH]c3CCN2Cc2nccn2CC)nc1 (stereo not drawn) [DDD01254473, CCN1C=CN=C1CN1CCC2=C(NC=N2)C1C1=CC=C(CC)C=N1] | 0.056 µM | 80.6% | 1.2 µM | – | – | – | – | – | – | IC50 [2, 7]: 1.54 µM; Emax [2, 6]: 91.2%; IC50 [2, 8]: 0.448 µM; Emax [2, 9]: 98.8%; IC50 [3, 10]: 2.64 µM; Emax [3, 11]: 78.6% |
| COc1ccc(C)cc1CN1CCC(c2cc3ncccc3cn2)CC1 [DDD01058767, COC1=CC=C(C)C=C1CN1CCC(CC1)C1=NC=C2C=CC=NC2=C1] | 2.51 µM | 85.5% | – | 0.0507 µM | 0.25 µM | 96.3% | 0.0439 µM | 100% | – | Emax [2, 15]: 98.5%; IC50 [3, 18]: 0.136 µM; Emax [3, 19]: 101% |
| OC1(CN2CCC(Oc3cccc(C(F)(F)F)c3)CC2)CCNC1 (stereo not drawn) [DDD01245291, OC1(CN2CCC(CC2)OC2=CC=CC(=C2)C(F)(F)F)CCNC1] | 2.42 µM | 50.1% | – | 2.08 µM | 0.88 µM | 93.8% | 0.958 µM | 99.5% | – | Emax [2, 15]: 95.9%; IC50 [3, 18]: 1.93 µM; Emax [3, 19]: 96.4% |
| CN(CCO)Cc1cc(Cl)ccc1OCC(O)CN1CCCCCC1 (stereo not drawn) [DDD01243745, CN(CCO)CC1=CC(Cl)=CC=C1OCC(O)CN1CCCCCC1] | 5.69 µM | 54.7% | – | 2.92 µM | 0.95 µM | 93.5% | 1.45 µM | 98.8% | – | Emax [2, 15]: 97%; IC50 [3, 18]: 1.09 µM; Emax [3, 19]: 99.1% |
| Cc1cccc(CN2CCCC2c2cccc(Nc3nccs3)n2)c1 (stereo not drawn) [DDD01057018, CC1=CC=CC(CN2CCCC2C2=CC=CC(NC3=NC=CS3)=N2)=C1] | 0.115 µM | 90.4% | – | 0.914 µM | 1.04 µM | 94.6% | 0.53 µM | 101% | 0.12 µM | Emax [2, 15]: 93.5% |
| CCc1[nH]c2c(CNc3nc(C)cc(NC)n3)cc(C)cc2c1C [DDD01251782, CCC1=C(C)C2=CC(C)=CC(CNC3=NC(C)=CC(NC)=N3)=C2N1] | – | – | – | 0.765 µM | 0.63 µM | 95.7% | 0.158 µM | 98.4% | – | IC50 ([1]; NF54, read-out: Stg V Gam dose response IC50 (µM) (n=3), 10-point dose response, n=3, 72 h): 3.76 µM; inhibition at 2 µM ([1]; NF54, Table S6, 2uM, n=2, 72 h): 53.8%; IC50 ([1]; NF54, stage V gametocytes, 72 h, read-out: GAM V IC50): 3.76 µM; IC50 [3, 18]: 0.696 µM; Emax [3, 19]: 98% |
| CCc1[nH]c2c(CNc3cc(C)nc(NC)n3)cc(C)cc2c1C [DDD01250162, CCC1=C(C)C2=CC(C)=CC(CNC3=CC(C)=NC(NC)=N3)=C2N1] | 4.9 µM | 64.1% | 1.31 µM | – | – | – | – | – | 4.9 µM | IC50 [2, 7]: > 12.5 µM; Emax [2, 6]: 92.3%; Emax [2, 21]: 38.8%; IC50 [2, 8]: > 12.5 µM; Emax [2, 9]: 45.4%; IC50 [3, 10]: 1.55 µM; Emax [3, 11]: 94.1% |
| CNc1cc(C)nc(NC2CCCN(C3Cc4ccccc4C3)C2)n1 (stereo not drawn) [DDD01243506, CNC1=CC(C)=NC(NC2CCCN(C2)C2CC3=CC=CC=C3C2)=N1] | 2.91 µM | 62.9% | 1.33 µM | – | – | – | – | – | – | IC50 [2, 7]: 1.16 µM; Emax [2, 21]: 94.3%; IC50 [2, 8]: 0.707 µM; Emax [2, 9]: 100%; IC50 [3, 10]: 0.957 µM; Emax [3, 11]: 96.1% |
| Cc1cc(CN(C)c2nc(-c3ccccn3)nc3c2CCNCC3)n[nH]1 [DDD01255965, CN(CC1=CC(C)=NN1)C1=NC(=NC2=C1CCNCC2)C1=CC=CC=N1] | 0.875 µM | 61.9% | – | – | – | – | – | – | 0.88 µM | IC50 [2, 22]: > 10 µM |
| Cc1ccc(-c2nc(CNC(C)CCO)[nH]c2-c2ccccn2)cc1 (stereo not drawn) [DDD01253542, CC(CCO)NCC1=NC(=C(N1)C1=CC=C(C)C=C1)C1=CC=CC=N1] | 1.09 µM | 70.9% | 1.81 µM | – | – | – | – | – | 1.09 µM | – |
| CC(C)(C)c1cn2c(n1)C(CNCc1ccccn1)CCC2 (stereo not drawn) [DDD01062588, CC(C)(C)C1=CN2CCCC(CNCC3=CC=CC=N3)C2=N1] | 0.069 µM | 86.8% | 1.44 µM | – | – | – | – | – | 0.07 µM | IC50 [2, 7]: 2.9 µM; Emax [2, 6]: 91.5%; Emax [2, 21]: 90.4%; IC50 [2, 8]: 1.41 µM; Emax [2, 9]: 98.6%; IC50 [3, 10]: 1.72 µM; Emax [3, 11]: 87.3% |
| CN(Cc1nccs1)c1nc(-c2ccccn2)nc2c1CCNCC2 [DDD01258014, CN(CC1=NC=CS1)C1=NC(=NC2=C1CCNCC2)C1=CC=CC=N1] | 1.18 µM | 75.5% | – | 2.11 µM | 1.09 µM | 89.8% | 0.455 µM | 98% | 1.18 µM | Emax [2, 15]: 76.9%; IC50 [2, 22]: 0.46 µM; IC50 [3, 18]: 8.5 µM; Emax [3, 19]: 68.8% |
| Clc1cccc(C(NCc2ncc[nH]2)c2ccccn2)c1 (stereo not drawn) [DDD01064155, ClC1=CC=CC(=C1)C(NCC1=NC=CN1)C1=CC=CC=N1] | 2.06 µM | 59.1% | – | 1.99 µM | 0.27 µM | 94.2% | 0.408 µM | 98.7% | 2.06 µM | Emax [2, 15]: 94.1%; IC50 [3, 18]: 3.75 µM; Emax [3, 19]: 88.1% |
| COc1ccc(NC(=O)Cn2nc(C)c(C(C)=O)c2C)cc1 [DDD01027600, COC1=CC=C(NC(=O)CN2N=C(C)C(C(C)=O)=C2C)C=C1] | 3.74 µM | 53.5% | – | 1.9 µM | 0.49 µM | 92.8% | 1.45 µM | 92.8% | – | Emax [2, 15]: 87%; IC50 [3, 18]: 4.58 µM |
| CSc1ccc(-c2nc(CN3CCC(CN)C3)c(C)o2)cc1 (stereo not drawn) [DDD01250168, CSC1=CC=C(C=C1)C1=NC(CN2CCC(CN)C2)=C(C)O1] | 2.42 µM | 63% | 1.6 µM | – | – | – | – | – | – | Emax [2, 6]: 93.1% |
| CCN(CCN(C)C)c1nc(CCN)nc2sc(C)c(C)c12 [DDD01251823, CCN(CCN(C)C)C1=C2C(C)=C(C)SC2=NC(CCN)=N1] | 4.42 µM | 58.8% | 1.8 µM | – | – | – | – | – | – | Emax [2, 6]: 92.8% |
| Cc1ccccc1CN1CCCC1c1cccc(Nc2nccs2)n1 (stereo not drawn) [DDD01057017, CC1=CC=CC=C1CN1CCCC1C1=CC=CC(NC2=NC=CS2)=N1] | 0.261 µM | – | – | – | – | – | – | – | 0.26 µM | – |
| CC(C)N(CCNC(=O)c1[nH]nc2ccc(I)cc12)C(C)C [DDD01078603, CC(C)N(CCNC(=O)C1=C2C=C(I)C=CC2=NN1)C(C)C] | > 10 µM | 53.7% | – | – | – | – | – | – | – | – |
| CN1CCC(NCC(O)c2cccc(OCc3ccccc3)c2)CC1 (stereo not drawn) [DDD01079164, CN1CCC(CC1)NCC(O)C1=CC=CC(OCC2=CC=CC=C2)=C1] | 6.06 µM | 53.3% | – | – | – | – | – | – | – | – |
| CC(C)(C)c1cn2c(n1)C(CNCc1cnn3ccccc13)CCC2 (stereo not drawn) [DDD01062586, CC(C)(C)C1=CN2CCCC(CNCC3=C4C=CC=CN4N=C3)C2=N1] | 0.11 µM | 84.4% | – | – | – | – | – | – | – | – |
| Cc1cc(C)n(C2=NC(NCCCO)c3c(sc4c3CCCC4)N2)n1 (stereo not drawn) [DDD01037469, CC1=NN(C(C)=C1)C1=NC(NCCCO)C2=C(N1)SC1=C2CCCC1] | 0.39 µM | 91.5% | – | – | – | – | – | – | – | – |
| CN(CCc1cccc2ccccc12)Cc1nc(N)nc(N(C)C)n1 [DDD01076782, CN(CCC1=C2C=CC=CC2=CC=C1)CC1=NC(N)=NC(=N1)N(C)C] | 3.99 µM | 74.3% | 1.67 µM | – | – | – | – | – | – | – |
| Cc1cnn(CC2CCCN2Cc2nc(C)c3ccccc3n2)c1 (stereo not drawn) [DDD01298810, CC1=CN(CC2CCCN2CC2=NC(C)=C3C=CC=CC3=N2)N=C1] | 0.296 µM | 51.9% | – | – | – | – | – | – | – | – |
